Strand notation (5' to 3'): a small letter for the sugar, then the base; units joined by * are phosphorothioate-linked, units joined directly phosphodiester-linked; [ ] holds rarer units or linkages, { } end groups; capitals alone tell only the bases. e = 2'-O-(2-methoxyethyl) (MOE); [5mC] = 5-methylcytosine; d = 2'-deoxy (DNA)
How the values were obtained:
[1] = system: RhoB; assay: RhoB expression in H1299 cells transfected with antisense oligonucleotides (Western blot); assay type: cell-based, human; settings: 400 nM oligonucleotide with LIPOFECTIN, harvested 72 h after first transfection
Protocol: (§1) H1299 cells are transfected with HDAC1 antisense oligonucleotides NAS 6887, HDAC1 mismatch oligonucleotide NAS 7618, luciferase antisense oligonucleotide NAS 5596, or mock transfected. The following are the sequences of the modified oligonucleotides:
modified such that “s” stands for phosphorothioate, upper case refers to 2′-H, lower case refers to 2′-O-methoxyethyl and “c” refers to 2′-methoxyethyl 5-methylcytidine. Transfection is performed using LIPOFECTIN (Life Technologies) as a carrier according to the manufacturer's instruction. The transfection mixture is prepared in OPTI-MEM (Life Technologies) containing 6 μl LIPOFECTIN per 400 nM oligonucleotide. Transfection is carried out for 4 h, and is repeated twice on two consecutive days. Cells are harvested 72 h after the first transfection. RNA and proteins are isolated using Trizol reagent (Life Technologies) according to the manufacturer's instruction. Traces of DNA are removed from RNA samples using DNA-free (Ambion, Austin, Tex.) according to the manufacturer's protocol. RNA concentration is measured on CytoFluor Multi-well plate reader (PerSeptive Biosystems, Framingham, Mass.) using RIBO GREEN RNA Quantification kit (Molecular Probes, Eugene, Oreg.). Real Time RT-PCR
To determine the effect of specific HDAC1 blockade on RhoB expression, antisense oligonucleotides against HDAC1 were used. Potent antisense oligonucleotides against HDAC1 as well as oligonucleotides with mismatched nucleotides were synthesized and transfected into H1299 cells as specifically disclosed herein and as described in Examples 6-9. […] RNA and protein were isolated from H1299 cells transfected with the HDAC1 antisense oligonucleotides (NAS 6887), the corresponding mismatch (NAS 7618) and the unrelated luciferase control oligonucleotide (NAS 5596), and were analysed by real time RT-PCR and Western blot for HDAC1 and RhoB expression level. […] In contrast, no effects on RhoB expression were found in cells transfected with the NAS 7618 and NAS 5596 oligonucleotides.

[2] = system: HDAC1; assay: HDAC1 expression in H1299 cells transfected with antisense oligonucleotides (real time RT-PCR, Western blot); assay type: cell-based, human
Protocol: as §1
modified such that “s” stands for phosphorothioate, upper case refers to 2′-H, lower case refers to 2′-O-methoxyethyl and “c” refers to 2′-methoxyethyl 5-methylcytidine. Transfection is performed using LIPOFECTIN (Life Technologies) as a carrier according to the manufacturer's instruction. The transfection mixture is prepared in OPTI-MEM (Life Technologies) containing 6 μl LIPOFECTIN per 400 nM oligonucleotide. Transfection is carried out for 4 h, and is repeated twice on two consecutive days. […] RNA concentration is measured on CytoFluor Multi-well plate reader (PerSeptive Biosystems, Framingham, Mass.) using RIBO GREEN RNA Quantification kit (Molecular Probes, Eugene, Oreg.). […]
To determine the effect of specific HDAC1 blockade on RhoB expression, antisense oligonucleotides against HDAC1 were used. […] RNA and protein were isolated from H1299 cells transfected with the HDAC1 antisense oligonucleotides (NAS 6887), the corresponding mismatch (NAS 7618) and the unrelated luciferase control oligonucleotide (NAS 5596), and were analysed by real time RT-PCR and Western blot for HDAC1 and RhoB expression level. […]

Substance	RhoB expression (protein level) [1]	Expression of HDAC1 (real time RT-PCR and Western blot) ([2]; H1299 cells, 400 nM oligonucleotide with LIPOFECTIN, harvested 72 h after first transfection)	Inhibition of HDAC1 mRNA level ([2]; transfected H1299 cells)
NAS 5596: luciferase antisense control oligonucleotide, SEQ ID NO 14: cct taCs CsTsGs CsTsAs Gsct ggc (antisense CCTTACCTGCTAGCTGGC; phosphorothioate modifications, chemistry not fully specified)	no effects		
NAS 6887: HDAC1 antisense oligonucleotide, SEQ ID NO 12: gct gtAs CsTsCs CsGsAs Csat gtt (antisense eGe[5mC]eTeGeTdA*dC*dT*dC*dC*dG*dA*dC*eAeTeGeTeT)	significantly induced	efficiently blocked	very potent inhibition
NAS 7618: HDAC1 mismatch oligonucleotide, SEQ ID NO 13: gct ttAs CsGsCs CsTsAs Csag gtt (antisense GCTTTACGCCTACAGGTT; phosphorothioate modifications, chemistry not fully specified)	no effects		
